{"source": "patent US20040053847A1", "about": "“Diastereomeric peptitdes and pharmaceutical compositions comprising them” (priority 2000, published 2004)", "key": {"[1]": {"target": "pepsin (from porcine stomach mucosa) (Sus scrofa, UniProt P00791)", "sequence (P00791 60-385)": "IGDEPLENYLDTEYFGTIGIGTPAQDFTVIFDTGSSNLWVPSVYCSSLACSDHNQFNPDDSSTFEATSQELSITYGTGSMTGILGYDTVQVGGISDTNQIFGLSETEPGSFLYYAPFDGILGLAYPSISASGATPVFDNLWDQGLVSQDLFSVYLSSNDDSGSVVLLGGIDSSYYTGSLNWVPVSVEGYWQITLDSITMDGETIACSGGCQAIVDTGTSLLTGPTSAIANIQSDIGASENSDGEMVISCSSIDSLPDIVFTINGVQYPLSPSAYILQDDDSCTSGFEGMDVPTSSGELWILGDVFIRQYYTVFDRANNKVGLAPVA", "experiment": "in vitro", "conditions": "pig, pH 7.3", "protocol": "(§1) In order to reach their target, the diastereomers have to withstand proteolytic digestion by proteases which may occur during the time of their administration site till they reach the target site. The susceptibility of the diastereomer 2 of the invention Is to proteolytic digestion by pepsin (from porcine stomach mucosa, Sigma), trypsin (from bovine pancreas, Sigma), and elastase (from human leukocytes, Sigma) was assessed by reverse-phase HPLC. As a control we used the native, all L-amino acid antimicrobial peptide cecropin B. Equal amounts of the peptides were dissolved in PBS (35 mM phosphate buffer/0.15 M NaCl, pH 7.3) at final concentration of 140 μM to which 25 μM of protease were added. The samples were incubated under agitation for 30 min at 37° C. After the addition of the appropriate protease inhibitor to stop the reaction, aliquots were injected to C18 column and the amounts of the intact diastereomers were evaluated using their absorbance at 215 nm."}, "[2]": {"target": "trypsin (from bovine pancreas) (Bos taurus, UniProt P00760)", "sequence (P00760 24-246)": "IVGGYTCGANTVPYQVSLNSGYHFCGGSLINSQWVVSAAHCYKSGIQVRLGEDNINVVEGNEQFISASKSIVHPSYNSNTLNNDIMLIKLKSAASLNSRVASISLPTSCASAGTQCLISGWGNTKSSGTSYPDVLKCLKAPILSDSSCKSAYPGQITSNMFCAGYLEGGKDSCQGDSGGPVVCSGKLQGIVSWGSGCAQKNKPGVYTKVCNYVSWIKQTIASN", "experiment": "in vitro", "conditions": "pH 7.3", "protocol": "as §1"}, "[3]": {"target": "T1, elastase (from human leukocytes) (Homo sapiens, UniProt P08246)", "T1 construct": "elastase (from human leukocytes, Sigma); purchased Sigma; host or cells: human leukocytes (cell-derived)", "T1 sequence (P08246 30-247 limits assumed)": "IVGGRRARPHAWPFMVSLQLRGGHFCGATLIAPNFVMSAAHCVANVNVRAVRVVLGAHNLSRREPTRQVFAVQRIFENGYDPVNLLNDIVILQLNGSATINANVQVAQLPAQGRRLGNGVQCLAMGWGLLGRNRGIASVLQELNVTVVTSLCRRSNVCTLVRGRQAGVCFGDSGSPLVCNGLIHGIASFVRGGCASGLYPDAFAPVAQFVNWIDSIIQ", "experiment": "Proteolytic digestion assessed by reverse-phase HPLC", "assay_type": "in vitro ADME"}, "[4]": {"tested_on": "Cryptococcus neoformans ATCC 66031", "assay_type": "cell-based", "protocol": "(§2) The antifungal activity of the diastereomers was examined in sterile 96-well plates (Nunc F96 microtiter plates) in a final volume of 200 μL as follows: 100 μl of a suspension containing fungi at concentration of 1×10^4 Colony-Forming Units (CFU)/ml in culture medium (RPMI 1640, 0.165 M MOPS pH 7.0, with L-glutamine, without NaHCO3) was added to 100 μl of water containing the peptide in serial 2-fold dilutions in water. The fungi were incubated in the presence of the diastereomeric peptides for 24-48 h at 35° C. in a Binder KB115 incubator under agitation. Growth inhibition was determined by measuring the absorbance at 620 nm with a Microplate autoreader E1309 (Bio-tek Instruments). Antifungal activity is expressed as the minimal inhibitory concentration (MIC), the concentration at which 100% inhibition of growth was observed after the incubation time mentioned above. The fungi used were: Aspergillus niger ATCC 9642, Candida albicans ATCC 10231 and Cryptococcus neoformans ATCC 66031."}, "[5]": {"tested_on": "Aspergillus niger ATCC 9642", "assay_type": "cell-based", "conditions": "ATCC 9642", "protocol": "as §2"}, "[6]": {"tested_on": "Candida albicans ATCC 10231", "assay_type": "cell-based", "conditions": "ATCC 10231", "protocol": "as §2"}, "[7]": {"tested_on": "Mycoplasma pneumoniae", "assay_type": "cell-based", "conditions": "1 h", "protocol": "In order to examine the activity of the diastereomers of the invention against mycoplasma, 500 μl of Mycoplasma pneumoniae cells were introduced into a cell culture flask containing 50 ml of SP-4 growth media (Jacob et al., 1985). The cells were grown at 37° C. for 3-4 days. Before the assay, the mycoplasma cells were washed 3 times with serum-free medium (without fetal calf serum) and then harvested into 5 ml of the same medium. The cells' concentration was adjusted to approximately 1×10^6 cells ml^−1. Thereafter, 150 μl of either diastereomer 1 or 2 in phosphate-buffered saline (PBS) were added to 150 μl mycoplasma cells. The mixture was incubated for 1 hour at room temperature. As a control, cells were incubated with PBS alone. At the end of the incubation period, 150 μl of the mixture were inoculated into tissue culture flasks (in duplicate) containing 15 ml SP-4 media. After 3-4 days, the mycoplasma viability was determined by counting the number of cells grown in each flask."}, "[8]": {"experiment": "Cell selectivity, Trypan blue cell viability, LC50", "assay_type": "cell-based, mouse", "conditions": "mouse, NIH-3T3 fibroblasts; 50% cell mortality after 24 h incubation, medium without serum; read-out: Lethal Concentration (LC50), NIH-3T3 fibroblasts"}, "[9]": {"tested_on": "B16 F10 mouse melanoma cell line", "experiment": "In vitro anticancer activity, Trypan blue cell viability, LC50", "conditions": "50% cell mortality after 24 h incubation, medium without serum", "protocol": "The anticancer activity of the diastereomers 1, 2, 8, 9 and 10 was examined against B16 F10 mouse melanoma cell line. Melanoma cells were grown in RPMI-1640 medium supplemented with 10% fetal calf serum and antibiotics, at 37° C., in humidified atmosphere at 5% CO2 and 95% air. In addition, the cell-selectivity of the diastereomeric peptides was studied by examining their effect on NIH-3T3 normal fibroblasts cell line. NIH-3T3 mouse fibroblasts cells were grown in DMEM medium supplemented with 10% bovine calf serum and antibiotics under the same conditions as described above for B16 F10 mouse melanoma cells. Melanoma cells (2×10^5 cells ml^−1) or NIH-3T3 cells (2.5×10^5 cells ml^−1) were seeded in tissue culture plates (3.5 cm). After 48 h, cells were washed thrice with the corresponding medium. Then the cells were incubated at 37° C. in medium (without serum and antibiotics) in the presence of the tested diastereomeric peptides dissolved in PBS, at different concentrations. […] Following 24 h of incubation, the cells were harvested with trypsin (0.25%)-EDTA (0.05%) and centrifuiged for 10 min at 270×g. The precipitated cells were suspended in the corresponding medium and counted in a hemocytometer (Neubauer). Cell viability was determined by Trypan blue dye exclusion."}, "[10]": {"tested_on": "PC-3 prostate adenocarcinoma", "assay_type": "cell-based, human", "conditions": "24 h", "protocol": "(§3) Aliquots of 100 μl of tumor cell suspension (about 2.5-5×10^3/well) were placed in 96-well microtiter plates in an atmosphere of 5% CO2 at 37° C. […] At the end of incubation, 20 μl of AlamarBlue 75% reagent was added to each well for another 6-hour incubation before detection of cell viability by fluorescence intensity. Fluorescence intensity was measured using a Spectraflour Plus plate reader with excitation at 530 nm and emission at 590 nm. The assays were used to detect changes in cell proliferation based on the ability of viable cells to cause AlamarBlue to change from its oxidized (non-fluorescent, blue) to a reduced (fluorescent, red) form. With the results obtained from the AlamarBlue reaction, cell proliferation can be quantified and metabolic activity of viable cells can be examined."}, "[11]": {"tested_on": "SK-MEL- (ATCC HTB-70) malignant melanoma", "assay_type": "cell-based, human", "conditions": "24 h", "protocol": "as §3"}, "[12]": {"tested_on": "MCF-7 breast adenocarcinoma", "assay_type": "cell-based, human", "conditions": "24 h", "protocol": "as §3"}, "[13]": {"tested_on": "HT-29 colon adenocarcinoma", "assay_type": "cell-based, human", "conditions": "24 h", "protocol": "as §3"}, "[14]": {"tested_on": "A549 lung carcinoma", "assay_type": "cell-based, human", "conditions": "24 h", "protocol": "as §3"}}, "note": "Read-outs that look alike come from different tables or passages of the source. Square brackets hold non-standard residues; d marks the D form. Peptide text beside a SMILES is read from it."}
{"smiles": "CC[C@H](C)[C@H](NC(=O)CNC(=O)[C@H](CC(N)=O)NC(=O)[C@H](CCCNC(=N)N)NC(=O)[C@@H](NC(=O)[C@H](CC(N)=O)NC(=O)[C@H](CCCNC(=N)N)NC(=O)CNC(=O)[C@H](CCSC)NC(=O)[C@H](CCCCN)NC(=O)[C@H](CCC(=O)O)NC(=O)[C@@H](NC(=O)[C@H](CCCCN)NC(=O)[C@H](CCCCN)NC(=O)[C@H](Cc1ccccc1)NC(=O)[C@@H](NC(=O)[C@H](CCCCN)NC(=O)[C@H](Cc1c[nH]c2ccccc12)NC(=O)[C@@H](N)CCCCN)C(C)C)[C@@H](C)CC)[C@@H](C)CC)C(=O)N[C@H](C(=O)N[C@@H](CCCCN)C(=O)N[C@@H](C)C(=O)NCC(=O)N1CCC[C@H]1C(=O)N[C@@H](C)C(=O)N[C@H](C(=O)N[C@@H](C)C(=O)N[C@H](C(=O)N[C@@H](CC(C)C)C(=O)NCC(=O)N[C@@H](CCC(=O)O)C(=O)N[C@@H](C)C(=O)N[C@@H](CCCCN)C(=O)N[C@@H](C)C(=O)N[C@@H](CC(C)C)C(N)=O)C(C)C)[C@@H](C)CC)C(C)C", "note": "[Cecropin B, cecropin B, reference compound] (H-KWKVFKKIEKMGRNIRNGIVKAGPAIAVLGEAKAL-NH2)", "values": [{"measurement": "metabolised at 0.5 h, 140 μM", "setting": "[1]", "result": 100, "unit": "%"}, {"measurement": "metabolised at 0.5 h, 140 μM", "setting": "[2]", "result": 100, "unit": "%"}, {"measurement": "metabolised at 0.5 h, 140 μM", "setting": "[3]; elastase from human leukocytes, 140 μM peptide, 25 μM protease, 30 min at 37° C., PBS pH 7.3, read-out: Proteolytic digestion, Elastase", "result": 100, "unit": "%"}]}
{"smiles": "CC(C)C[C@H](NC(=O)[C@H](CCCCN)NC(=O)[C@H](CC(C)C)NC(=O)[C@@H](CC(C)C)NC(=O)[C@H](CC(C)C)NC(=O)[C@@H](N)CCCCN)C(=O)N[C@@H](CC(C)C)C(=O)N[C@H](CCCCN)C(=O)N[C@H](CCCCN)C(=O)N[C@@H](CC(C)C)C(=O)N[C@@H](CC(C)C)C(=O)N[C@@H](CCCCN)C(=O)N[C@H](CC(C)C)C(=O)N[C@@H](CC(C)C)C(=O)N[C@@H](CCCCN)C(N)=O", "note": "[Peptide 2, [D]-L^3,13,K^8,9-K6L9] (H-KL[dL]LKLL[dK][dK]LLK[dL]LK-NH2)", "values": [{"measurement": "metabolised at 0.5 h, 140 μM", "setting": "[1]", "result": 10, "unit": "%"}, {"measurement": "metabolised at 0.5 h, 140 μM", "setting": "[2]", "result": 32, "unit": "%"}, {"measurement": "MIC, C. neoformans ATCC 66031", "setting": "[4]", "result": 1.4, "unit": "µg/mL"}, {"measurement": "MIC, A. niger ATCC 9642", "setting": "[5]", "result": 50, "unit": "µg/mL"}, {"measurement": "MIC, C. albicans ATCC 10231", "setting": "[6]", "result": 100, "unit": "µg/mL"}, {"measurement": "MIC against Mycoplasma", "setting": "[7]", "result": 12.5, "unit": "µg/mL"}, {"measurement": "CC50 at 24 h", "setting": "[8]", "result": 30, "unit": "µg/mL"}, {"measurement": "Lethal Concentration (LC50), B16-F10 melanoma", "setting": "[9]", "result": 9, "unit": "µg/mL"}, {"measurement": "metabolised at 0.5 h, 140 μM", "setting": "[3]; isolated enzyme elastase, pH 7.3", "result": 6, "unit": "%"}]}
{"smiles": "CC(C)C[C@H](NC(=O)CN)C(=O)N[C@H](CC(C)C)C(=O)N[C@@H](CCCCN)C(=O)N[C@@H](CC(C)C)C(=O)N[C@@H](CC(C)C)C(=O)N[C@H](CCCCN)C(=O)N[C@H](CCCCN)C(=O)N[C@@H](CC(C)C)C(=O)N[C@H](CC(C)C)C(=O)N[C@@H](CCCCN)C(=O)N[C@@H](CC(C)C)C(=O)N[C@H](CC(C)C)C(=O)N[C@@H](CC(C)C)C(=O)N[C@@H](CCCCN)C(=O)N[C@@H](CCCCN)C(N)=O", "note": "[Peptide 8, [D]-L^3,10,13,K^7,8-GK6L9] (H-GL[dL]KLL[dK][dK]L[dL]KL[dL]LKK-NH2; N-terminus assumed)", "values": [{"measurement": "MIC, C. neoformans ATCC 66031", "setting": "[4]", "result": 1.5, "unit": "µg/mL"}, {"measurement": "MIC, A. niger ATCC 9642", "setting": "[5]", "result": 30, "unit": "µg/mL"}, {"measurement": "MIC, C. albicans ATCC 10231", "setting": "[6]", "result": 30, "unit": "µg/mL"}, {"measurement": "CC50 at 24 h", "setting": "[8]", "result": 30, "unit": "µg/mL"}, {"measurement": "Lethal Concentration (LC50), B16-F10 melanoma", "setting": "[9]", "result": 9, "unit": "µg/mL"}]}
{"smiles": "CC(C)C[C@H](NC(=O)[C@H](CC(C)C)NC(=O)[C@@H](CCCCN)NC(=O)[C@@H](CCCCN)NC(=O)[C@H](CC(C)C)NC(=O)[C@@H](CC(C)C)NC(=O)[C@H](CCCCN)NC(=O)[C@H](CC(C)C)NC(=O)[C@@H](CC(C)C)NC(=O)[C@H](CC(C)C)NC(=O)[C@@H](N)CCCCN)C(=O)N[C@@H](CCCCN)C(=O)N[C@H](CC(C)C)C(=O)N[C@@H](CC(C)C)C(=O)N[C@@H](CCCCN)C(N)=O", "note": "[Peptide 10, [D]-L^3,6,13,K^8,9,13-K6L9] (H-KL[dL]LK[dL]L[dK][dK]LLK[dL]LK-NH2; N-terminus assumed)", "values": [{"measurement": "IC50", "setting": "[10]", "result": 8.9, "unit": "µM"}, {"measurement": "IC50", "setting": "[11]", "result": 2.6, "unit": "µM"}, {"measurement": "IC50", "setting": "[12]", "result": 3.6, "unit": "µM"}, {"measurement": "IC50", "setting": "[13]", "result": 15, "unit": "µM"}, {"measurement": "IC50", "setting": "[14]", "result": 2.4, "unit": "µM"}, {"measurement": "CC50 at 24 h", "setting": "[8]", "result": 140, "unit": "µg/mL"}]}
